Experimental findings from US4175081A, “5-Substituted thiadiazole ureas” (priority 1977, dated 1979) are described below.

For assay [1], the system named is Crabgrass (CG). The experiment in a line: Pre-emergence herbicide test. It is filed as in vivo, Digitaria sanquinalis. The note with it: Digitaria sanguinalis, pre-emergence, 336 h; 8 lb/acre; two weeks after treatment. The method, boiled down:
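Crabgrass (Digitaria sanquinalis) was surface seeded in 3' plastic pots of potting soil, covered with screened soil, and watered by sub-irrigation in greenhouse trays. Pots were seeded one day before spraying in a hood with a moving belt and fixed nozzle. Plants stayed in the greenhouse on sub-irrigation, and pre-emergence control was rated visually two weeks after treatment.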

In assay [2] the test system is Yellow foxtail grass (YF). Nature of the assay: Pre-emergence herbicide test. Particulars: Setaria, 336 h, 8 lb/acre, two weeks after treatment. It is filed as in vivo, Setaria glauca. The method in brief:
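Seeds surface-sown in potting soil one day before spraying; compounds applied pre-emergence at 8 or 4 lbs/acre in 38 gallons/acre spray. Pots held in greenhouse with sub-irrigation only. Injury or control rated visually two weeks after treatment.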

Assay [3] concerns Johnson grass (JG). Nature of the assay: Pre-emergence herbicide test. It is filed as in vivo, Sorgum helepense. Particulars: Sorghum halepense, 336 h, 8 lb/acre, two weeks after treatment. The method, boiled down: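 Pots seeded one day before spraying; compound applied pre-emergence at 8 lbs/acre (or 4 lbs/acre) in 38 gallons/acre spray volume. Sub-irrigated in greenhouse; injury/control rated visually two weeks after treatment.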

For assay [4], the system named is Barnyard grass (BG). The experiment in a line: Pre-emergence herbicide test. It is filed as in vivo. The note with it: Echinochloa crus-galli, 336 h, 8 lb/acre, two weeks after treatment. The method in brief: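 Barnyard grass surface-seeded in potting soil and sprayed pre-emergence one day after seeding, at 8 or 4 lb compound/acre in 38 gal/acre spray volume. Pots kept in greenhouse with sub-irrigation only; injury or control rated visually two weeks after treatment.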

Assay [5] deals with Amaranth pigweed (PW). Nature of the assay: Pre-emergence herbicide test. It is filed as in vivo, Amaranthus retroflexus. Particulars: 336 h, 8 lb/acre, two weeks after treatment. The method in brief: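 Pigweed was surface-seeded in potted soil one day before spraying at 8 lbs compound per acre, or 4 lbs/acre, in 38 gallons per acre. Pots were kept in the greenhouse with sub-irrigation only; injury or control was rated visually two weeks after treatment.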

Assay [6] relates to Turnip (TP). The experiment in a line: Pre-emergence herbicide test. Particulars: Brassica rapa, pre-emergence, 336 h; 8 lb/acre; two weeks after treatment. It is filed as in vivo, Brassica sp. The method, boiled down: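 Turnip (Brassica sp.) seeds were surface sown in 3' plastic pots of potting soil, covered with a thin layer of screened soil, and sub-irrigated in greenhouse trays. Pots were seeded one day ahead of treatment, sprayed pre-emergence under a hood with a fixed nozzle and moving belt, then kept in the greenhouse.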

In assay [7] the test system is Cotton (CT). The experiment in a line: Pre-emergence herbicide test. It is filed as in vivo, Gossypium hirsutum var. DPL smooth leaf. The note with it: Gossypium hirsutum, 336 h, 8 lb/acre, two weeks after treatment. The method, boiled down: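 Crop and weed species seeded one day before treatment, then sprayed pre-emergence at 8 lbs actual compound per acre (also 4 lbs/acre formulations) in 38 gallons per acre. Pots kept in greenhouse with sub-irrigation only; injury or control visually rated two weeks after treatment.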

For assay [8], the system named is Corn (CN). The experiment in a line: Pre-emergence herbicide test. It is filed as in vivo. Particulars: Zea mays, 336 h, 8 lb/acre, two weeks after treatment. The method, boiled down: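 Four corn seeds per pot, sown at seed-diameter depth one day before spraying, got soil surface treatment at 8 lbs/acre (4 lbs/acre formulations also prepared) in 38 gallons/acre. Pots were greenhouse-held with sub-irrigation only. Injury or control was scored visually two weeks after treatment.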

In assay [9] the test system is Bean (BN). Nature of the assay: Pre-emergence herbicide test. It is filed as in vivo, Phaseolus vulgaris var. Black Valentine. The note with it: Phaseolus vulgaris, 336 h, 8 lb/acre, two weeks after treatment. The method in brief:
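Black Valentine bean was seeded in potting soil one day before spraying. Compound was applied pre-emergence at 8 lbs/acre (also 4 lbs/acre) in 38 gallons per acre. Plants were sub-irrigated and injury or control was rated visually after two weeks.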

Assay [10] deals with Crabgrass (CG). Nature of the assay: Post-emergence herbicide test. It is filed as in vivo, Digitaria sanquinalis. Particulars: Digitaria sanguinalis, post-emergence, 336 h; 8 lb/acre; two weeks after treatment. The method, boiled down:
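Crabgrass (Digitaria sanquinalis) was surface seeded individually in 3' plastic pots of potting soil, covered with screened soil, and watered by sub-irrigation in greenhouse trays. Planting was staggered so seedlings reached the target stage together. Post-emergence sprays were applied in a hood with a removable belt and fixed nozzle, and control was visually rated two weeks after treatment.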

Assay [11] relates to Yellow foxtail grass (YF). Nature of the assay: Post-emergence herbicide test. It is filed as in vivo, Setaria glauca. The note with it: Setaria, 336 h, 8 lb/acre, two weeks after treatment. The method in brief: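 Potted seedlings grown in greenhouse, planting staggered to reach the target stage together, then sprayed post-emergence at 8 lbs actual compound/acre in 38 gallons/acre (4 lbs/acre formulations also prepared). Sub-irrigated afterwards. Injury or control rated visually two weeks after treatment.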

Assay [12] relates to Johnson grass (JG). The experiment in a line: Post-emergence herbicide test. It is filed as in vivo, Sorgum helepense. Particulars: Sorghum halepense, 336 h, 8 lb/acre, two weeks after treatment. The method in brief: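 Greenhouse pot-grown seedlings sprayed post-emergence at 8 lbs compound per acre (some at 4 lbs/acre) in 38 gallons per acre spray volume. Sub-irrigated thereafter. Injury/control rated visually two weeks after treatment.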

The test system of assay [13] is Barnyard grass (BG). Nature of the assay: Post-emergence herbicide test. It is filed as in vivo. The note with it: Echinochloa crus-galli, 336 h, 8 lb/acre, two weeks after treatment. The method in brief:
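Greenhouse pot-grown barnyard grass seedlings sprayed post-emergence at 8 lbs active compound per acre (some at 4 lbs/acre) in 38 gallons per acre, then sub-irrigated. Injury or control rated visually two weeks after treatment.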

Assay [14] relates to Amaranth pigweed (PW). The experiment in a line: Post-emergence herbicide test. It is filed as in vivo, Amaranthus retroflexus. Particulars: 336 h, 8 lb/acre, two weeks after treatment. The method, boiled down:
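Pot-grown pigweed was sprayed post-emergence at the 1–2 true-leaf stage with compound at rates equivalent to 8 lbs per acre (formulations also prepared for 4 lbs/acre) in 38 gallons per acre, using a hood with fixed nozzle. Plants were sub-irrigated in the greenhouse, and injury or control was rated visually two weeks after treatment.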

Assay [15] deals with Turnip (TP). Nature of the assay: Post-emergence herbicide test. It is filed as in vivo, Brassica sp. Particulars: Brassica rapa, post-emergence, 336 h; 8 lb/acre; two weeks after treatment. The method, boiled down: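 A greenhouse post-emergence herbicide test on turnip. Seeds were sown on the surface of potting soil in 3' plastic pots, lightly covered with screened soil and watered from below. Planting was timed so seedlings had 1 or 2 true leaves above the cotyledons at spraying, done in a hood with a fixed nozzle. Control or injury was scored by eye after two weeks.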

Assay [16] relates to Cotton (CT). The experiment in a line: Post-emergence herbicide test. It is filed as in vivo, Gossypium hirsutum var. DPL smooth leaf. The note with it: Gossypium hirsutum, post-emergence, 336 h; 8 lb/acre; two weeks after treatment. The method, boiled down: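 Cotton (Gossypium hirsutum var. DPL smooth leaf) was grown in 3' plastic pots of potting soil, four seeds per pot, planted at a depth equal to the seed diameter and watered by sub-irrigation. At the stage of expanded cotyledons with the first true leaf 1' long, plants were sprayed post-emergence in a hood with a fixed nozzle over a moving belt. Percent control was rated visually two weeks later.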

Assay [17] has as its system Corn (CN). The experiment in a line: Post-emergence herbicide test. It is filed as in vivo. Particulars: Zea mays, 336 h, 8 lb/acre, two weeks after treatment. The method, boiled down:
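Greenhouse seedlings grown in potting soil and sprayed post-emergence at 8 lbs compound/acre (formulations also made for 4 lbs/acre) in 38 gallons/acre spray volume. Watering by sub-irrigation only. Injury or control rated visually two weeks after treatment.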

For assay [18], the system named is Bean (BN). The experiment in a line: Post-emergence herbicide test. It is filed as in vivo, Phaseolus vulgaris var. Black Valentine. Particulars: Phaseolus vulgaris, post-emergence, 336 h; 8 lb/acre; two weeks after treatment. The method in brief:
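Snapbean (Phaseolus vulgaris var. Black Valentine) was tested post-emergence. Four seeds were sown in 3' plastic pots of potting soil at a depth equal to the seed diameter, then sub-irrigated in greenhouse trays. Planting dates were staggered so plants were sprayed once primary leaves had expanded, with the growing point at the primary leaf nodes.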

The test system of assay [19] is variety of crops and weed species. Nature of the assay: Pre- and post-emergence herbicide tests, overall assessment of Tables III-VI. It is filed as in vivo. The note with it: data of Tables III-VI. The method, boiled down: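 Crops and weeds grown in potting soil were sprayed at 8 lbs. compound per acre in 38 gallons per acre, pre-emergence pots seeded one day before treatment. Injury or control was visually rated two weeks after treatment.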

As usually defined, the pest or weed control is how far the test organism was held down. The low end stands for weak suppression, the high end for strong suppression. For `C=CCNC(=O)Nc1nnc(C(F)(F)F)s1` [Example 12], the pest or weed control at 8966.8 g/ha in the assay with Crabgrass (CG) [1] is 20%; in [2], 10%; with Johnson grass (JG) [3], 10%; with Barnyard grass (BG) [4] it was 10%; in the assay on Amaranth pigweed (PW) [5], 10%; with Turnip (TP) [6] it was 10%. Besides, the pest or weed control at 8966.8 g/ha in the assay on Cotton (CT) [7] came out at 30%; in the assay with Corn (CN) [8], 10%; in the assay on Bean (BN) [9], 10%; with Crabgrass (CG) [10], 50%; in assay [11] it was 40%; with Johnson grass (JG) [12], 40%. Also, the pest or weed control at 8966.8 g/ha in the assay on Barnyard grass (BG) [13] is 50%; with Amaranth pigweed (PW) [14] it was 70%; with Turnip (TP) [15], 70%; in the assay on Cotton (CT) [16], 90%; in the assay with Corn (CN) [17], 40%; with Bean (BN) [18], 100%. In assay [19], the “herbicidal effectiveness / selectivity, in words” value was “control post-emergence growth, while have little effect in regard to pre-emergence”.

With `CNC(=O)Nc1nnc(COC)s1` [Example 25], the pest or weed control at 8966.8 g/ha with Crabgrass (CG) [1] was determined as 20%; in [2] it was 10%; in the assay on Johnson grass (JG) [3], 10%; in the assay with Barnyard grass (BG) [4], 10%; in the assay on Amaranth pigweed (PW) [5], 10%; with Turnip (TP) [6], 10%. Moreover, the pest or weed control at 8966.8 g/ha in the assay with Cotton (CT) [7] was found to be 100%; in the assay with Corn (CN) [8] it was 10%; in the assay with Bean (BN) [9] it was 70%; in the assay on Crabgrass (CG) [10], 30%; in assay [11], 20%; with Johnson grass (JG) [12], 30%. Also, the pest or weed control at 8966.8 g/ha amounted to 20% in the assay on Barnyard grass (BG) [13]; 40% in the assay on Amaranth pigweed (PW) [14]; 30% in the assay with Turnip (TP) [15]; 100% with Cotton (CT) [16]; 30% with Corn (CN) [17]; 100% with Bean (BN) [18]. Moreover, in assay [19], the “herbicidal effectiveness / selectivity, in words” value is “more selective when applied to a certain crop or weed species”.

For `CNC(=O)Nc1nncs1` [Example 35], the pest or weed control at 8966.8 g/ha (in the assay with Crabgrass (CG) [1]; in assay [2]; in the assay on Johnson grass (JG) [3]; with Barnyard grass (BG) [4]; in the assay with Amaranth pigweed (PW) [5]; in the assay with Turnip (TP) [6]) was 10% throughout. Besides, the pest or weed control at 8966.8 g/ha is 100% with Cotton (CT) [7]; 10% with Corn (CN) [8]; 60% with Bean (BN) [9]; 10% with Crabgrass (CG) [10]; 10% in assay [11]; 10% in the assay with Johnson grass (JG) [12]. The pest or weed control at 8966.8 g/ha amounted to 10% with Barnyard grass (BG) [13]; 100% in the assay with Amaranth pigweed (PW) [14]; 20% in the assay on Turnip (TP) [15]; 50% in the assay with Cotton (CT) [16]; 10% in the assay on Corn (CN) [17]; 30% in the assay on Bean (BN) [18]. In [19], the “herbicidal effectiveness / selectivity, in words” value was “more selective when applied to a certain crop or weed species”.
